Where “and” joins values, the source holds several entries; their conditions need not be identical. Equal entries are not always repeated. Values belong to the compound of their own block, whether it stands above or below them.
What was measured:
Type in all cases: cell-based
[1] = molecular target: T1, LFA-1 (Homo sapiens, UniProt P20701); experiment: V well cell adhesion assay, LFA-1-mediated Jurkat cell binding to ICAM-1 (LFA-1 adhesion); details: Jurkat cells on ICAM-1/Fc; mean ±SD of ≥3 independent experiments in triplicates or single experiments in triplicates
T1 construct: endogenous in cells; host or cells: Jurkat cells
Experimental: Cell-Based Assay to Determine the Effect of the Compounds on LFA-1-Mediated Cell Adhesion (LFA-1 Adhesion)
Purpose of the Assay: The V well cell adhesion assay measures the ability of the compounds to interfere with LFA-1-mediated binding to ICAM-1 at cellular level. The assay has been successfully used in the past to identify and characterize small molecules LFA-1 inhibitors.
Experimental Protocol: The adhesion assay was performed in Vbottom 96-well plates as described previously [Weitz-Schmidt 2012]. Briefly, the plates were coated with anti-human IgG mAb diluted in coating buffer (20 mM Tris containing 150 mM NaCl, pH 8) (1 μg/mL) and incubated overnight at 4° C. The plates were flicked out and blocked with blocking buffer (50 mM Tris base, 150 mM NaCl, 1.5% BSA (w/v), pH 7.2) at 37° C. for 90 min. Then human recombinant ICAM-1/Fc (R&D Systems) diluted in coating buffer (0.3 μg/mL) was added to each well. The plates were incubated at 37° C. for 90 min and washed with binding buffer (50 mM Tris base, 150 mM NaCl, 1.5% BSA (w/v), 2 mM MgCl2, 2 mM MnCl2, 5 mM D-glucose monohydrate, pH 7.2-7.4) to remove unbound ligand.
Jurkat cells were cultured under standard conditions as recommended by the American Type Culture collection (ATCC). The cells were fluorescently labelled with BCECF-AM in PBS (1 μg/mL) at 37° C. for 20 min in the dark, centrifuged and washed with PBS. The test compounds were dissolved in DMSO at 10 mM and serially pre-diluted in DMSO (100%) to avoid precipitation, before performing final dilution steps in binding buffer.
The labelled Jurkat cells were re-suspended in binding buffer and test compounds or solvent control were added. The DMSO concentration was kept constant in all samples (1% DMSO as final assay concentration). After 40 min at 37° C. (LFA-1 activation and compound pre-incubation step) the cell suspension (3×10^5 cells/mL in binding buffer) was pipetted up and down and transferred to the ligand-coated microtiter V well plates (30 000 cells/well). The plates were centrifuged for 4 min at room temperature (rt) at 1000 rpm (Centrifuge Eppendorf 5810 R), setting the brake off Non-adherent cells that accumulated in the center of the Vbottom were quantified using a fluorescence reader with the filter sets allowing excitation at 485 nm and quantification of emission at 535 nm. The determination of the half maximal inhibitory concentration (IC50) of the compounds was calculated using the software GraphPad Prism 6.

[2] = molecular target: T2, VLA-4 (Homo sapiens, UniProt P05556+P13612); experiment: V well cell adhesion assay, VLA-4-mediated Jurkat cell binding to VCAM-1 (VLA-4 adhesion); details: Jurkat cells on VCAM-1 Fc; single experiments run in triplicates
T2 construct: endogenous in cells; host or cells: Jurkat cells
Experimental: Cell-Based Assay to Determine the Selectivity of the Compounds Over the Integrin VLA-4 (VLA-4 Adhesion)
Purpose of the Assay: This V well cell adhesion assay measures the effect of the compounds on VLA-4-mediated Jurkat cell binding to VCAM-1. The assay has been successfully used in the past to determine the selectivity of small molecule LFA-1 inhibitors over the integrin VLA-4.
Experimental Protocol: The adhesion assay was performed as described above for the Jurkat/ICAM-1 V well adhesion assay. Briefly, plates were coated with anti-human IgG mAb and blocked with BSA as described above. Instead of ICAM-1, recombinant human VCAM-1/CD106 Fc chimera (R&D Systems) was coated onto the plates (0.3 μg/mL in coating buffer). After incubation, labelled Jurkat cells in binding buffer were transferred to the wells (20,000 cells/well). The plates were immediately centrifuged at 1000 rpm for 4 min at rt (Centrifuge Eppendorf 5810 R) setting the brakeoff. Non-adherent cells were quantified in the tip of the Vbottom well using a fluorescence reader. IC50 values of the compounds were calculated using the software GraphPad Prism 6.

[3] = molecular target: T1, LFA-1; experiment: Flow cytometry, mAb R7.1 binding to LFA-1 expressed on leukocytes; details: Jurkat cells or human PBMCs, values of independent experiments; for inhibition at 1 µM: Jurkat
Experimental: Measurement of mAb R7.1 binding to LFA-1 (mAb R7.1 binding)
Purpose of the Assay: This flow cytometry assay determines the effect of the compounds on the binding of the anti-LFA-1 mAb R7.1 to LFA-1 expressed on leukocytes.
Experimental Protocol: Jurkat cells or human peripheral blood mononuclear cells (PBMCs) were resuspended in assay buffer (50 mM Tris, 150 mM NaCl, 2 mM MgCl2, 1.5% BSA and 5 mM D-glucose monohydrate, pH7.2) at 2×10^6 cells/mL and 500 μL of this cell suspension (1×10^6 cells) were transferred into polypropylene tubes containing the test compounds diluted in 500 μL assay buffer. The samples were pre-incubated at 37° C. for 40 min, and centrifuged. The supernatants were removed and FITC-labelled anti-LFA-1 mAb R7.1 and PE-labeled anti-LFA-1 mAb TS2/4 (mAb TS2/4 is not affected by alpha I allosteric inhibitor binding to LFA-1) or appropriate isotype controls were added directly to each cell pellet. The pellets were then gently pipetted up and down and incubated on ice for 30 min in the dark. After the incubation step the cells were washed twice with PBS and resuspended in PBS.
Antibody binding was analyzed by flow cytometry. Mean fluorescence intensities (MFI) were calculated using the CellQuest software. The values are expressed as % of solvent control (solvent control=100% binding).

[4] = molecular target: T1, LFA-1; experiment: Flow cytometry, mAb MEM148 binding to LFA-1 expressed on leukocytes; details: solvent ctrl = 1, Jurkat cells or PBMCs
Experimental: Quantification of mAb MEM148 Binding to LFA-1 (mAb MEM148 Binding)
Purpose of the Assay: This flow cytometry assay determines the effect of the compounds on the binding of the conformation-sensitive anti-LFA-1 mAb MEM148 to LFA-1 expressed on leukocytes. The mAb MEM148 detects an epitope which becomes exposed in activated LFA-1 [Yuki 2012]
Experimental Protocol: The assay is performed as the flow cytometry assay described above.
Briefly, Jurkat cells or PBMCs in assay buffer (50 mM Tris, 150 mM NaCl, 1 mM CaCl2, 1 mM MgCl2, 5 mM Glucose, 1.5% BSA, pH 7.3) were pre-incubated with the compounds and appropriate positive controls for 40 min at rt. After incubation, the cell-suspension was centrifuged, the supernatant discarded and PE-labelled anti-LFA-1 mAb MEM148 was directly added to the pellets. After pipetting up and down, the tubes were incubated for 30 min. at 37° C. in the dark. The pellet was washed twice with 1 mL PBS and resuspended in PBS. Antibody binding was quantified by flow cytometry. Mean fluorescence intensities (MFI) were calculated using the CellQuest software.

T2 sequence (P13612 34-1032): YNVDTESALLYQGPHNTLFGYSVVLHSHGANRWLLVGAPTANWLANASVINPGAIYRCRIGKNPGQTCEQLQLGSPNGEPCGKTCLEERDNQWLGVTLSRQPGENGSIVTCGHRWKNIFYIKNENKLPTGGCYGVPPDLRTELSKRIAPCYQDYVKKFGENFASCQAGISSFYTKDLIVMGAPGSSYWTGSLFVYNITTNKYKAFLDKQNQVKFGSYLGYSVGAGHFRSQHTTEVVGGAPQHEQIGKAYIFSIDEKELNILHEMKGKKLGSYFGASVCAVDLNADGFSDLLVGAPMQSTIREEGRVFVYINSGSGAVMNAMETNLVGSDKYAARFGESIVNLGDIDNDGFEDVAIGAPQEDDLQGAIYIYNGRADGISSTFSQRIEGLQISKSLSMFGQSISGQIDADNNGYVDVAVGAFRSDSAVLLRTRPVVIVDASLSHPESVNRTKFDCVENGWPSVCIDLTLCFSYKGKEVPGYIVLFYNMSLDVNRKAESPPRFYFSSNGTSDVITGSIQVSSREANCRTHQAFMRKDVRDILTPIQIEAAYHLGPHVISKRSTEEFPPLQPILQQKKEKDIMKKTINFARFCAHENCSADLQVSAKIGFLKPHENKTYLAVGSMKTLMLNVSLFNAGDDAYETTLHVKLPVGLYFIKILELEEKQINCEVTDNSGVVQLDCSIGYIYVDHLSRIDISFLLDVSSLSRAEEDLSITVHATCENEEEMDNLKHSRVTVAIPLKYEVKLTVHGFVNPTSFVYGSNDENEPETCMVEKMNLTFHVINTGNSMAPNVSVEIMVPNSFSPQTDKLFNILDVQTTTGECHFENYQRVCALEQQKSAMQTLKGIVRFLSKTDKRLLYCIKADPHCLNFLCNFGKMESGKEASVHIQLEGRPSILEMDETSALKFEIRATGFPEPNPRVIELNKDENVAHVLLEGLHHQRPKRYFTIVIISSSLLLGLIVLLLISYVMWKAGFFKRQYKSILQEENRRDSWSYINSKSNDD
T2 sequence (P05556 21-798): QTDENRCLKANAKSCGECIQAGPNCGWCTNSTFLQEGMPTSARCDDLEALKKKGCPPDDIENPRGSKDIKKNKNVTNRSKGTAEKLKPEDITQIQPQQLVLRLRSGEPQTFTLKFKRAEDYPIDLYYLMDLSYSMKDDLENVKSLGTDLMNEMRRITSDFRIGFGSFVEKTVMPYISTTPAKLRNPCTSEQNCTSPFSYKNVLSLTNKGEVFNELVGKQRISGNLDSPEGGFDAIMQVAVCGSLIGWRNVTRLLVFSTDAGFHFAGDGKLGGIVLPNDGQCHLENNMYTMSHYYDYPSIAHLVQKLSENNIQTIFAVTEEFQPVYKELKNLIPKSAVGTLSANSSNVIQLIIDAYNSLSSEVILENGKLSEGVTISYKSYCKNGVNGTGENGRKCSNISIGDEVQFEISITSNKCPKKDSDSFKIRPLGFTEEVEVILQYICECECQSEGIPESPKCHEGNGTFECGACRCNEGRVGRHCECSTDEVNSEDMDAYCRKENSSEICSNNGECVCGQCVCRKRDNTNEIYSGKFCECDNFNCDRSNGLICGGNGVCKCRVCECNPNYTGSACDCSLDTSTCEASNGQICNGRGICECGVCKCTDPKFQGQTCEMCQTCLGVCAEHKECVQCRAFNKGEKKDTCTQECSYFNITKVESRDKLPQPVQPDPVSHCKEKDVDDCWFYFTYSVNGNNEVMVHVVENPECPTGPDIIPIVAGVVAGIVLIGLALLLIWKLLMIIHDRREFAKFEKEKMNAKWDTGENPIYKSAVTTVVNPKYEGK
T1 sequence (P20701 26-1170): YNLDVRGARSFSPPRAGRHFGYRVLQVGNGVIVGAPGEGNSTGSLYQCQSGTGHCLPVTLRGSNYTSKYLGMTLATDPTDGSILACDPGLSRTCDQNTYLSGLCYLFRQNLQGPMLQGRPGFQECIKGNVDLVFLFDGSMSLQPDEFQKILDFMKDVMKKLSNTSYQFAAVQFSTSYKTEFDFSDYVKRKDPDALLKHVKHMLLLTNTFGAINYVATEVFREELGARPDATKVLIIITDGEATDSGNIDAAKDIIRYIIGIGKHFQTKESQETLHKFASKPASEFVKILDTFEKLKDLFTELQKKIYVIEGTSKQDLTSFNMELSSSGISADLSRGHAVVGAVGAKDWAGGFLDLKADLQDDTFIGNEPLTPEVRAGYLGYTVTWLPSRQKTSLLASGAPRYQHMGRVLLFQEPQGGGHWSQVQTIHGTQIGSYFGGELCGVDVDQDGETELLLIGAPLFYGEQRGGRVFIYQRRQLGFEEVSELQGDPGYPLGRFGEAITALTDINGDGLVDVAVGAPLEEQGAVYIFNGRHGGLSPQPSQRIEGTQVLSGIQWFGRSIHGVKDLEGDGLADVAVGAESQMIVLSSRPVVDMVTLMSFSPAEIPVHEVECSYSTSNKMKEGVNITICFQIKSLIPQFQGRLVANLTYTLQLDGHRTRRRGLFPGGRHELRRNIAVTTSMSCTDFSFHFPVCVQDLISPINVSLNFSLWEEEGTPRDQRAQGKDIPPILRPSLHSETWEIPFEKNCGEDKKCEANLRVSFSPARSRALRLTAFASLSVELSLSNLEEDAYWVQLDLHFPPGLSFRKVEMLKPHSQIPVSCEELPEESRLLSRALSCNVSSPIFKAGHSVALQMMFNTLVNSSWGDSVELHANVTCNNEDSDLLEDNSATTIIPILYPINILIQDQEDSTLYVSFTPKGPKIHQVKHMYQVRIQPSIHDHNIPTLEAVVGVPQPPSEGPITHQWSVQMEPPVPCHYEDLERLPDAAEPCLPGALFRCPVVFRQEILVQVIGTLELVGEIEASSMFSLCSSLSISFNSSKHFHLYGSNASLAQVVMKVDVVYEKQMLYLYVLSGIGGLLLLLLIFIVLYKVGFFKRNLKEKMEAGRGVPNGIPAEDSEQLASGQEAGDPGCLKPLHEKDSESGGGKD
T1 sequence (P05107 23-769 partner): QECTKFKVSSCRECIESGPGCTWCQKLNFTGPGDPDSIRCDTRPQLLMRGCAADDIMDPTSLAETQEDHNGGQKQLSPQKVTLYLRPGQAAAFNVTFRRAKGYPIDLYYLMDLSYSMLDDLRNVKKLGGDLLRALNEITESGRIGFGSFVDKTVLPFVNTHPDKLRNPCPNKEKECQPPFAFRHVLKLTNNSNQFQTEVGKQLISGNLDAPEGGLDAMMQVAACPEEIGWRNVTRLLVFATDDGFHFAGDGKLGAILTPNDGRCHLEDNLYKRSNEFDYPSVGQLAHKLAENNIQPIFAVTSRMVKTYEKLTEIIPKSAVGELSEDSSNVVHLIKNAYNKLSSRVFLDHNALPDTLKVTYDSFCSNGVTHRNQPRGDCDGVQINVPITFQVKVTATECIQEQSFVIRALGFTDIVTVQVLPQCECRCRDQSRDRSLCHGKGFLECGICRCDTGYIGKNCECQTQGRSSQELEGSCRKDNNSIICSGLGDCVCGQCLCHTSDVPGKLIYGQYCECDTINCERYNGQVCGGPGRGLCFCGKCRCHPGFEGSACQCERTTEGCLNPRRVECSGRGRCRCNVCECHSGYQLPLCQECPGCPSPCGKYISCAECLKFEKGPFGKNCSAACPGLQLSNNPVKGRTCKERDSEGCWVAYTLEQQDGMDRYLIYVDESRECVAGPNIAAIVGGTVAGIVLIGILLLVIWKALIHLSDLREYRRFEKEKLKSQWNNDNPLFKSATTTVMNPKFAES

SMILES: CC12C(=O)N(c3cc(Cl)cc(Cl)c3)C(=O)C1C2(c1ccncc1)c1ccc(OC(F)(F)F)cc1 (single isomer, unassigned) [4x or 4′x diastereomer I (racemate), rac-(1 S, 5S, 6R)- and rac-(1 S, 5S, 6S)-3-(3,5-Dichlorophenyl)-1-methyl-6-(pyridin-4-yl)-6-[4-(trifluoromethoxy)phenyl]-3-azabicyclo[3.1.0]hexane-2,4-dione]
IC50 [1]: 202 nM and 286 nM | IC50 [2]: > 10000 nM | mAb R7.1 binding % inhibition at 1 μM [3]: 98.4%

SMILES: CCOC(=O)[C@@]1(c2ccc(Br)cc2)[C@@H]2C(=O)N(c3cc(Cl)cc(Cl)c3)C(=O)[C@@]21C (racemic) [4′j (racemate), rac-Ethyl-(1 S, 5R, 6R)-6-(4-bromophenyl)-3-(3,5-dichlorophenyl)-1-methyl-2,4-dioxo-3-azabicyclo[3.1.0]-hexane-6-carboxylate]
mAb MEM148 binding, binding relative to solvent ctrl at 10 μM [4]: 0.738 | IC50 [1]: 375 ± 204 nM | IC50 [2]: > 10000 nM | inhibition at 1 µM [3]: 93.6%

SMILES: C[C@]12C(=O)N(c3cc(Cl)cc(Cl)c3)C(=O)[C@H]1[C@H]2c1ccccc1 (racemic) [4′d (racemate), rac-(1R,5S,6S)-3-(3,5-Dichlorophenyl)-1-methyl-6-phenyl-3-azabicyclo[3.1.0]hexane-2,4-dione]
IC50 [1]: 1540 ± 646 nM | inhibition at 1 µM [3]: 80.5%

SMILES: O=C1[C@@H]2[C@H](C(=O)N1c1cc(Cl)cc(Cl)c1)C2(c1ccc(OC(F)(F)F)cc1)c1ccc(OC(F)(F)F)cc1 [Compound 4p, 3-(3,5-Dichlorophenyl)-6,6-bis[4-(trifluoromethoxy)phenyl]-3-azabicyclo[3.1.0.]hexane-2,4-dione]
IC50 [1]: > 1000 nM | inhibition at 1 µM [3]: 74.3%

SMILES: O=C1C2C(C(=O)N1c1cc(Cl)cc(Cl)c1)C2(c1ccncc1)c1ccc(OC(F)(F)F)cc1 (single isomer, unassigned) [4w or 4′w diastereomer I]
IC50 [1]: 215 ± 134 nM | IC50 [2]: > 10000 nM | mAb R7.1 binding % inhibition at 1 μM [3]: 95.7%

SMILES: O=C1C2C(C(=O)N1c1cc(Cl)cc(Cl)c1)C2(c1ccncc1)c1ccc(OC(F)(F)F)cc1 (single isomer, unassigned) [4w or 4′w diastereomer II]
IC50 [1]: > 1000 nM | mAb R7.1 binding % inhibition at 1 μM [3]: 45.7%

Next, values leading:

IC50 [1]: > 1000 nM | inhibition at 1 µM [3]: 87.1%
SMILES: N#Cc1ccc(C2(c3ccc(C#N)cc3)[C@@H]3C(=O)N(c4cc(Cl)cc(Cl)c4)C(=O)[C@@H]32)cc1 [Compound 4u, 4-[6-(4-Cyanophenyl)-3-(3,5-dichlorophenyl)-2,4-dioxo-3-azabicyclo[3.1.0]hexan-6-yl]benzonitrile]

mAb MEM148 binding, binding relative to solvent ctrl at 10 μM [4]: 0.937 | IC50 [1]: 18 ± 14 nM | IC50 [2]: > 10000 nM | inhibition at 1 µM [3]: 98.6%
SMILES: CC12C(=O)N(c3cc(Cl)cc(Cl)c3)C(=O)C1C2(c1ccc(C#N)cc1)c1ccc(OC(F)(F)F)cc1 (single isomer, unassigned) [4i/4′i diastereomer II (racemate), rac-4-[(1 S, 5S, 6S)- and rac-4-(1 S, 5S, 6R)-3-(3,5-Dichlorophenyl)-1-methyl-2,4-dioxo-6-[4-(trifluoro-methoxy)-phenyl]-3-azabicyclo[3.1.0]hexan-6-yl]benzonitrile]

IC50 [1]: > 1000 nM | mAb R7.1 binding % inhibition at 1 μM [3]: 76.9%
SMILES: CC12C(=O)N(c3cc(Cl)cc(Cl)c3)C(=O)C1C2(c1ccncc1)c1ccc(OC(F)(F)F)cc1 (single isomer, unassigned) [4x or 4′x diastereomer II (racemate), rac-(1 S, 5S, 6R)- and rac-(1 S, 5S, 6S)-3-(3,5-Dichlorophenyl)-1-methyl-6-(pyridin-4-yl)-6-[4-(trifluoromethoxy)phenyl]-3-azabicyclo[3.1.0]hexane-2,4-dione]

IC50 [1]: 45 ± 14 nM | IC50 [2]: > 10000 nM
SMILES: C[C@]12C(=O)N(c3cc(Cl)cc(Cl)c3)C(=O)[C@H]1C2(c1ccc(C#N)cc1)c1ccc(C#N)cc1 (racemic) [4v (racemate), rac-4-[(1S,5S)-6-(4-Cyanophenyl)-3-(3,5-dichlorophenyl)-1-methyl-2,4-dioxo-3-azabicyclo[3.1.0]hexan-6-yl]benzonitrile]
